Data as given in PMC12257397, “Scaffold Hopping Strategy toward New 4‑Aminoquinazolines Active Against Extracellular and Intracellular Mycobacterium tuberculosis” (ACS Medicinal Chemistry Letters, 2025).
In brackets after ≈: the same amount, converted by molar mass.

Legend:
[1] = tested on: M. tuberculosis H37Rv (ATCC 27294); assay: MIC by resazurin reduction microplate assay (REMA); assay type: cell-based; settings: Mycobacterium tuberculosis, converted from μg/mL to μM
[2] = in vitro; settings: human
[3] = tested on: M. tuberculosis H37Rv-LP (ATCC 25618); assay: microbe, parasite or virus in culture; assay type: cell-based; settings: Mycobacterium tuberculosis, 120 h, concentration inhibiting 90% of growth, 5 days, read-out: MIC parental wild-type strain H37Rv-LP
[4] = in vitro; settings: human; remark: listed apart in the source
[5] = in vitro; settings: human; remark: listed apart in the source

| Compound | MIC [1] | also measured |
| --- | --- | --- |
| Cc1nc(NCCc2ccccc2)c2ccccc2n1 [9a] | 38 µM (≈ 10 µg/mL) |  |
| COc1ccc2nc(C)nc(NCCc3ccccc3)c2c1 [9b] | 34.1 µM (≈ 10 µg/mL) |  |
| Cc1nc(NCCc2ccccc2)c2cc(Br)ccc2n1 [9c] | 7.3 µM (≈ 2.5 µg/mL) |  |
| c1ccc(CCNc2ncnc3ccccc23)cc1 [9e] | 80.2 µM (≈ 20 µg/mL) |  |
| COc1ccc(CCNc2nc(C)nc3ccccc23)cc1 [10a] | 34.1 µM (≈ 10 µg/mL) |  |
| COc1ccc(CCNc2nc(C)nc3ccc(OC)cc23)cc1 [10b] | 30.9 µM (≈ 9.99 µg/mL) |  |
| COc1ccc(CCNc2nc(C)nc3ccc(Br)cc23)cc1 [10c] | 13.4 µM (≈ 4.99 µg/mL) |  |
| COc1ccc(CCNc2nc(C)nc3ccc(I)cc23)cc1 [10d] | 1.5 µM (≈ 0.629 µg/mL) | CC50 at 72 h ([2]; CC50 HepG2+Gal): 6.4 µM; CC50 at 72 h ([2]; CC50 HepG2+Glu): 10.8 µM; MIC [3]: 0.92 µM (≈ 0.386 µg/mL) |
| COc1ccc(CCNc2ncnc3ccccc23)cc1 [10e] | 71.6 µM (≈ 20 µg/mL) |  |
| Cc1nc(NCCc2ccc(Cl)cc2)c2ccccc2n1 [11a] | 16.8 µM (≈ 5 µg/mL) |  |
| COc1ccc2nc(C)nc(NCCc3ccc(Cl)cc3)c2c1 [11b] | 30.5 µM (≈ 10 µg/mL) |  |
| Cc1nc(NCCc2ccc(Cl)cc2)c2cc(Br)ccc2n1 [11c] | 13.3 µM (≈ 5.01 µg/mL) |  |
| Cc1nc(NCCc2ccc(Cl)cc2)c2cc(I)ccc2n1 [11d] | 0.73 µM (≈ 0.309 µg/mL) | CC50 at 72 h ([2]; CC50 HepG2+Gal): 3.3 µM; CC50 at 72 h ([2]; CC50 HepG2+Glu): 4.2 µM; MIC [3]: 0.84 µM (≈ 0.356 µg/mL) |
| Clc1ccc(CCNc2ncnc3ccccc23)cc1 [11e] | > 35.2 µM |  |
| Cc1nc(NCC(c2ccccc2)c2ccccc2)c2ccccc2n1 [12a] | 29.5 µM (≈ 10 µg/mL) |  |
| COc1ccc2nc(C)nc(NCC(c3ccccc3)c3ccccc3)c2c1 [12b] | 27.1 µM (≈ 10 µg/mL) |  |
| Cc1nc(NCC(c2ccccc2)c2ccccc2)c2cc(Br)ccc2n1 [12c] | > 23.9 µM |  |
| Cc1nc(NCC(c2ccccc2)c2ccccc2)c2cc(I)ccc2n1 [12d] | > 21.5 µM |  |
| c1ccc(C(CNc2ncnc3ccccc23)c2ccccc2)cc1 [12e] | > 30.7 µM |  |
| Cc1nc(NCCc2ccc(OC(F)(F)F)cc2)c2ccccc2n1 [13a] | 7.2 µM (≈ 2.5 µg/mL) |  |
| COc1ccc2nc(C)nc(NCCc3ccc(OC(F)(F)F)cc3)c2c1 [13b] | 13.3 µM (≈ 5.02 µg/mL) |  |
| Cc1nc(NCCc2ccc(OC(F)(F)F)cc2)c2cc(Br)ccc2n1 [13c] | 5.9 µM (≈ 2.51 µg/mL) | CC50 at 72 h ([2]; CC50 HepG2+Gal): 1 µM; CC50 at 72 h ([2]; CC50 HepG2+Glu): 1.5 µM; MIC [3]: 3.4 µM (≈ 1.45 µg/mL); CC50 at 72 h [4]: < 1 µM; CC50 at 72 h [5]: < 1 µM |
| Cc1nc(NCCc2ccc(OC(F)(F)F)cc2)c2cc(I)ccc2n1 [13d] | 5.3 µM (≈ 2.51 µg/mL) | CC50 at 72 h ([2]; CC50 HepG2+Gal): 2.2 µM; CC50 at 72 h ([2]; CC50 HepG2+Glu): 3.4 µM; MIC [3]: 3.7 µM (≈ 1.75 µg/mL); CC50 at 72 h [4]: 7.3 µM; CC50 at 72 h [5]: 7.4 µM |
| FC(F)(F)Oc1ccc(CCNc2ncnc3ccccc23)cc1 [13e] | 60 µM (≈ 20 µg/mL) |  |
| Cc1nc(NCCc2ccc(S(N)(=O)=O)cc2)c2ccccc2n1 [14a] | > 117 µM |  |
| COc1ccc2nc(C)nc(NCCc3ccc(S(N)(=O)=O)cc3)c2c1 [14b] | > 107 µM |  |
